pEC50, pIC50, pKd: −log10 of the molar value. Read-outs that look alike come from different tables or passages of the source.
What was measured:
[1] = format: in vivo
Method: (§1) For the hamster model system, male golden syrian hamsters were fed LabDiet#5002 rodent diet and housed individually on a 14/10 hr light/dark cycle. For treatment, the animals were randomized according to body weight and they were also weighed at each treatment so that the drug doses could be adjusted accordingly. The animals were treated daily by oral gavage, 6 days/week for 4 weeks. At the end of treatments, the animals were sacrificed by carbon dioxide inhalation. The flank organs were then excised and spread on a small piece of index card which was placed in a histology cassette for fixation in 10% buffered formaldehyde. The specimen was divided into 5 equally spaced portions to make paraffin blocks and one 5-micrometer H&E sections was prepared from each block. The two sections that contained the most sebaceous glands were used to determine the average acini area of the flank organ. A video camera attached to a standard microscope with the 4× objective was used to capture the images of the sebaceous glands. Computer programs Videoshop and NIH Image 1.63 were used to quantify the acini areas. All the recognizable sebaceous glands in the two sections were analyzed and the means were derived for comparison among various treatments. In all studies, blood samples were also collected for determining the levels of serum triglyceride using a triglyceride GPO Trinder kit from Sigma Chemicals (St. Louis, Mo.).
Experimental results showing the effect of various retinoid compounds on differentiation of sebaceous gland in […] flank organ were generated.

[2] = molecular target: T1, RAR α (Homo sapiens, UniProt P10276); assay: RAR α EC50/(efficacy); format: cell-based; conditions: for RAR α (EFFICACY): value in brackets of cell EC50/(EFFICACY)/Kd; for pEC50: first item of cell EC50/(EFFICACY)/Kd
T1 sequence (P10276 1-462): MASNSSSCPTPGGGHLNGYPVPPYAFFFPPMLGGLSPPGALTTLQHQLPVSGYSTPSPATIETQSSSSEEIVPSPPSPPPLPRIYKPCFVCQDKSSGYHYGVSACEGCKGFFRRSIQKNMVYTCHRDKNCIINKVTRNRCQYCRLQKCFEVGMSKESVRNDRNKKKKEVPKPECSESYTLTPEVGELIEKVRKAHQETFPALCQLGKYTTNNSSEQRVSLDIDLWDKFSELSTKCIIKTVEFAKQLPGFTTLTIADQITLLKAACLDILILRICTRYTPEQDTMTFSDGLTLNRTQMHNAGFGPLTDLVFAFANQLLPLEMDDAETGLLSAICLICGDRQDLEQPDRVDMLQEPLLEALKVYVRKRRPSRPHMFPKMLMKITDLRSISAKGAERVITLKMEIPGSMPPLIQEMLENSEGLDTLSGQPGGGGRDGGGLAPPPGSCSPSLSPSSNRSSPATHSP

[3] = molecular target: T2, RAR β (Homo sapiens, UniProt P10826); assay: RAR β EC50/(efficacy); format: cell-based; conditions: for RAR β (EFFICACY): value in brackets of cell EC50/(EFFICACY)/Kd; for pEC50: first item of cell EC50/(EFFICACY)/Kd
T2 sequence (P10826 1-455): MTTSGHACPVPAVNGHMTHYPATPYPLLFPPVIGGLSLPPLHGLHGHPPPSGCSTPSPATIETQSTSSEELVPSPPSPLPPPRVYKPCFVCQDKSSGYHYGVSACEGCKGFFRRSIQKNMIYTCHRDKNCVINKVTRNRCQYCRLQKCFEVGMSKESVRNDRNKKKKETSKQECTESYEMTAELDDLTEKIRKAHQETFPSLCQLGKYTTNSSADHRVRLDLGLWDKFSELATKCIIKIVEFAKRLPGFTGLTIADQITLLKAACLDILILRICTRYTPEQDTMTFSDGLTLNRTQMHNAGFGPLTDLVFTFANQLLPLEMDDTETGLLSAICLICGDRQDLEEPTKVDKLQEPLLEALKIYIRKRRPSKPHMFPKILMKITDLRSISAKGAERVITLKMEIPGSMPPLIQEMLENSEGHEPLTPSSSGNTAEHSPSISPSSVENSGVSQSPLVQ

[4] = molecular target: T3, RAR γ (Homo sapiens, UniProt P13631); assay: RAR γ Kd; format: binding; conditions: last item of cell EC50/(EFFICACY)/Kd
T3 sequence (P13631 1-454): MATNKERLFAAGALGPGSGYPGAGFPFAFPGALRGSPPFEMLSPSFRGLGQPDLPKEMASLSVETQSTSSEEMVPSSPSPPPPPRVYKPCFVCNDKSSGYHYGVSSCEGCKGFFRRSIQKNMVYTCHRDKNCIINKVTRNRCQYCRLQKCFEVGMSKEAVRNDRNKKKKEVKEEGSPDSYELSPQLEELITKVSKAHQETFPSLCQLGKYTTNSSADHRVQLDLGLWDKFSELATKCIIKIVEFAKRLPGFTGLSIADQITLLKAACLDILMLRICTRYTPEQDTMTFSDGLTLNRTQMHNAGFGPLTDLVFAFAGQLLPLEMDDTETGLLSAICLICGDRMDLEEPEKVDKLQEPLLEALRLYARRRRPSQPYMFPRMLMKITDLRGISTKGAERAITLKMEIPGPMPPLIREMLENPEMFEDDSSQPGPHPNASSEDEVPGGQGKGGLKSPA

[5] = molecular target: T3, RAR γ; assay: RAR γ EC50/(efficacy); format: cell-based; conditions: for RAR γ (EFFICACY): value in brackets of cell EC50/(EFFICACY)/Kd; for pEC50: first item of cell EC50/(EFFICACY)/Kd
[6] = molecular target: T4, CYP26B (P450RAI-2) (Homo sapiens, UniProt Q9NR63); assay: Cell-based inhibition of RA metabolism in CYP26B stably transfected HeLa cells; conditions: stably transfected HeLa cells, [3H]-RA, 3 hours at 37° C.; read-out: P450RAI-2 Whole cell IC50
T4 construct: expressed in transfected cells; host or cells: HeLa
T4 sequence (Q9NR63 1-512): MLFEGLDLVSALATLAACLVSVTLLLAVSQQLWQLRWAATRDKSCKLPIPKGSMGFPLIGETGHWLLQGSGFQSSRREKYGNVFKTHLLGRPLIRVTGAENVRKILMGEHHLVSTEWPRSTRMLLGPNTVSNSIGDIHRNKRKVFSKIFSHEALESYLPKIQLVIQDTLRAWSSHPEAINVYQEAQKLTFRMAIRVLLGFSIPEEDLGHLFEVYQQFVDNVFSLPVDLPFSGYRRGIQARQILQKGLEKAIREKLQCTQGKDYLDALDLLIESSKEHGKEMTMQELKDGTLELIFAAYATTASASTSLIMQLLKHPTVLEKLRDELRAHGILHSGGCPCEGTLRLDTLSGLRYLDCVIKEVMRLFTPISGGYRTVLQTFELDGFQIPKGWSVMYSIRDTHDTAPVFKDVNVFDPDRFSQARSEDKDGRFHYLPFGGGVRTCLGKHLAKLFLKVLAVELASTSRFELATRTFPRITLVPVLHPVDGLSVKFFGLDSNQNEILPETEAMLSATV
Procedure, shortened: (§2)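 Stably transfected HeLa cells (5×10^5/well) in MEM with 10% FBS and 0.05 μCi [3H]-RA, compounds at 10, 1 or 0.1 μM final, 3 h at 37° C. Retinoids extracted by modified Bligh-Dyer (methylene chloride); aqueous radioactivity counted; ID50 for 50% inhibition of RA metabolism derived from log-transformed data.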

[7] = molecular target: T5, CYP26A (P450RAI-1) (Homo sapiens, UniProt O43174); assay: Cell-based inhibition of RA metabolism in CYP26A stably transfected HeLa cells; conditions: stably transfected HeLa cells, [3H]-RA, 3 hours at 37° C.; read-out: P450RAI-1 Whole cell IC50
T5 construct: expressed in transfected cells; host or cells: HeLa
T5 sequence (O43174 1-497): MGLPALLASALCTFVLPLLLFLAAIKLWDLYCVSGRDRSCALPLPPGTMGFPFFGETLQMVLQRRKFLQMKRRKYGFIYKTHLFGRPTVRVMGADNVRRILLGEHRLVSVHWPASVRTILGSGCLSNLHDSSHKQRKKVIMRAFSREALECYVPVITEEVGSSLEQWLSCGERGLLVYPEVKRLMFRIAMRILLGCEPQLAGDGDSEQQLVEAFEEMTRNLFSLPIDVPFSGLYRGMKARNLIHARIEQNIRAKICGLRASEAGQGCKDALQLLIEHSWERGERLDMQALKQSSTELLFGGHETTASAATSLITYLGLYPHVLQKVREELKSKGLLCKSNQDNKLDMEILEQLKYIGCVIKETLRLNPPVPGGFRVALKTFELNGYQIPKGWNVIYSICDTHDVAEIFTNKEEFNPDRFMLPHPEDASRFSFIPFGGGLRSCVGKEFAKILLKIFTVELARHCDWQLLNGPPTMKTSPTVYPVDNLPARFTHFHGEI
Procedure, shortened: as §2

[8] = molecular target: T2, RAR β; assay: RAR β Kd; format: binding; conditions: last item of cell EC50/(EFFICACY)/Kd
[9] = molecular target: T1, RAR α; assay: RAR α Kd; format: binding; conditions: last item of cell EC50/(EFFICACY)/Kd
[10] = test system: hamster flank organ sebaceous gland; assay: Hamster flank organ sebaceous gland differentiation (model for acne); format: in vivo, male golden syrian hamsters
Method: Differentiation of hamster flank organ sebaceous gland is a model system for development of acne. To determine the effectiveness of selective CYP26B inhibitors for treating acne, such inhibitors were tested in this model system. To confirm that this model system can predict the effectiveness of a compound in reducing acne, 13-cis retinoic acid (acutane) was used as a positive control.
as §1

SMILES	toxicity ([1]; hamster, in vivo)	RAR α (EFFICACY) [2]	RAR β (EFFICACY) [3]	pKd [4]	RAR γ (EFFICACY) [5]	pIC50 [6]	pIC50 [7]	pKd [8]	pKd [9]	pEC50 [2]	pEC50 [3]	pEC50 [5]	effect on the 13-cis retinoic acid-induced reduction in sebaceous gland differentiation ([10]; given with 13-cis retinoic acid, FIG. 2)	toxicity ([1]; hamster flank organ study)	sebaceous gland differentiation in hamster flank organ ([10]; oral gavage, 6 days/week for 4 weeks)
C/C(=C\c1ccc(C(=O)O)cc1)c1ccc2c(c1)C(C)(C)CCC2(C)C [TTNPB]	observed at effective doses	–	–	–	–	–	–	–	–	–	–	–	–	–	–
CC(C)c1cc(C(=O)Oc2ccc(/C=C/C(=O)O)cc2)cc2c1OC(C)(C)CC2(C)C [Compound 16, 8-Isopropyl-2,2,4,4-tetramethyl-chroman-6-carboxylic acid 4-(2-carboxy-vinyl)-phenyl ester]	–	~5	35	< 5.00	~5	< 5.00	6.52	6.09	5.51	–	–	–	–	–	–
C#Cc1c(C)c(C#Cc2ccc(CC(=O)O)cc2)cc(C(C)(C)C)c1OC(C)C [Compound 45, [4-(5-tert-Butyl-3-ethynyl-4-isopropoxy-2-methyl-phenylethynyl)-phenyl]-acetic acid]	–	52	55	6.59	68	< 5.00	6.15	7.12	8.00	6.93	7.74	7.51	–	–	–
C#CCc1c(C)c(C#Cc2ccc(CC(=O)O)cc2)cc(C(C)(C)C)c1OC(C)C [Compound 47, [4-(5-tert-Butyl-4-isopropoxy-2-methyl-3-prop-2-ynyl-phenylethynyl)-phenyl]-acetic acid]	–	10	59	5.71	66	5.06	7.00	5.35	5.65	–	7.42	6.90	–	–	–
CN(c1cccc(C#Cc2ccc(/C=C/C(=O)O)cc2)c1)C1CC1 [Compound 37, (E)-3-{4-[3-(Cyclopropyl-methyl-amino)-phenylethynyl]-phenyl}-acrylic acid]	–	10	70	< 5.00	15	6.30	< 5.00	5.15	< 5.00	–	–	–	–	–	–
CCc1ccc(C2=CC(C)(C)Sc3ccc(C#Cc4ccc(C(=O)O)cc4)cc32)cc1 [AGN194310]	–	–	–	–	–	–	–	–	–	–	–	–	blocked the effect of 13-cis retinoic acid treatment on sebaceous gland differentiation	–	–
C=Cc1c(C)c(C#Cc2ccc(CC(=O)O)cc2)cc(C(C)(C)C)c1OC(C)C [Compound 46, [4-(5-tert-Butyl-4-isopropoxy-2-methyl-3-vinyl-phenylethynyl)-phenyl]-acetic acid]	–	67	75	6.67	65	< 5.00	6.15	7.35	7.07	7.19	8.00	8.15	–	–	–
CC1=C(/C=C/C(C)=C\C=C\C(C)=C/C(=O)O)C(C)(C)CCC1=O [4-oxo-13-cis RA]	–	–	–	–	–	–	–	–	–	–	–	–	–	lower toxicity levels	appeared to be more effective
